Results: PubChem BioAssay (NCI)
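Step 1: Grow cells in 96-well plates. Step 2: Expose to compound for 48 hours at 5 concentrations. Step 3: Interpolate endpoints linearly; if unreached, use highest concentration. At the TGI there is no net growth.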

What was measured:
Test in all cases: NCI tumour cell line growth inhibition, 48 h
[1] = test system: 786-0 renal
[2] = test system: A498 renal
[3] = test system: A549 NSCLC
[4] = test system: ACHN renal
[5] = test system: BT-549 breast
[6] = test system: CAKI-1 renal
[7] = test system: CCRF-CEM leukemia
[8] = test system: COLO 205 colon
[9] = test system: DLD-1 colon
[10] = test system: DMS 114 small cell lung
[11] = test system: DMS 273 small cell lung
[12] = test system: DU-145 prostate
[13] = test system: EKVX NSCLC
[14] = test system: HCC-2998 colon
[15] = test system: HCT-116 colon
[16] = test system: HCT-15 colon
[17] = test system: HL-60(TB) leukemia
[18] = test system: HOP-18 NSCLC
[19] = test system: HOP-62 NSCLC
[20] = test system: HOP-92 NSCLC
[21] = test system: HS 578T breast
[22] = test system: HT29 colon
[23] = test system: IGROV1 ovarian
[24] = test system: K-562 leukemia
[25] = test system: KM12 colon
[26] = test system: KM20L2 colon
[27] = test system: LOX IMVI melanoma
[28] = test system: M14 melanoma
[29] = test system: M19-MEL melanoma
[30] = test system: MALME-3M melanoma
[31] = test system: MCF7 breast
[32] = test system: MDA-MB-231 breast
[33] = test system: MDA-MB-435
[34] = test system: MDA-N
[35] = test system: MOLT-4 leukemia
[36] = test system: NCI-H226 lung
[37] = test system: NCI-H23 lung
[38] = test system: NCI-H460 lung
[39] = test system: NCI-H522 lung
[40] = test system: NCI/ADR-RES ovarian
[41] = test system: OVCAR-3 ovarian
[42] = test system: OVCAR-4 ovarian
[43] = test system: OVCAR-5 ovarian
[44] = test system: OVCAR-8 ovarian
[45] = test system: P388 leukemia
[46] = test system: P388/ADR leukemia
[47] = test system: PC-3 prostate
[48] = test system: RPMI-8226 leukemia
[49] = test system: RXF 393 renal
[50] = test system: SF-268 CNS
[51] = test system: SF-295 CNS
[52] = test system: SF-539 CNS
[53] = test system: SK-MEL-2 melanoma
[54] = test system: SK-MEL-28 melanoma
[55] = test system: SK-MEL-5 melanoma
[56] = test system: SK-OV-3 ovarian
[57] = test system: SN12C renal
[58] = test system: SN12K1 renal
[59] = test system: SNB-19 CNS
[60] = test system: SNB-75 CNS
[61] = test system: SNB-78 CNS
[62] = test system: SR leukemia
[63] = test system: SW-620 colon
[64] = test system: T-47D breast
[65] = test system: TK-10 renal
[66] = test system: U251 CNS
[67] = test system: UACC-257 melanoma
[68] = test system: UACC-62 melanoma
[69] = test system: UO-31 renal
[70] = test system: XF 498 CNS

SMILES: CC(=O)NCCCCCCNC(C)=O
- TGI [1]: > 10 mM
- TGI [2]: > 9.69 mM
- TGI [3]: > 9.66 mM
- TGI [4]: > 10 mM
- TGI [5]: > 10 mM
- TGI [6]: > 10 mM
- TGI [7]: > 10 mM
- TGI [8]: > 10 mM
- TGI [9]: > 10 mM
- TGI [10]: > 10 mM
- TGI [11]: 7.25 mM
- TGI [12]: > 10 mM
- TGI [13]: > 10 mM
- TGI [14]: > 8.61 mM
- TGI [15]: > 10 mM
- TGI [16]: > 10 mM
- TGI [17]: 9 mM
- TGI [18]: > 10 mM
- TGI [19]: > 10 mM
- TGI [20]: > 6.73 mM
- TGI [21]: > 10 mM
- TGI [22]: > 10 mM
- TGI [23]: > 10 mM
- TGI [24]: > 10 mM
- TGI [25]: > 10 mM
- TGI [26]: > 10 mM
- TGI [27]: > 10 mM
- TGI [28]: > 10 mM
- TGI [29]: > 10 mM
- TGI [30]: 7.7 mM
- TGI [31]: > 9.38 mM
- TGI [32]: > 5.62 mM
- TGI [33]: > 10 mM
- TGI [34]: > 10 mM
- TGI [35]: > 10 mM
- TGI [36]: > 10 mM
- TGI [37]: > 10 mM
- TGI [38]: > 7.5 mM
- TGI [39]: 9.12 mM
- TGI [40]: > 10 mM
- TGI [41]: 9.84 mM
- TGI [42]: > 9.59 mM
- TGI [43]: > 10 mM
- TGI [44]: > 10 mM
- TGI [45]: > 10 mM
- TGI [46]: > 10 mM
- TGI [47]: > 10 mM
- TGI [48]: > 10 mM
- TGI [49]: > 10 mM
- TGI [50]: > 10 mM
- TGI [51]: > 10 mM
- TGI [52]: > 10 mM
- TGI [53]: > 10 mM
- TGI [54]: > 10 mM
- TGI [55]: > 10 mM
- TGI [56]: > 10 mM
- TGI [57]: > 10 mM
- TGI [58]: > 10 mM
- TGI [59]: > 10 mM
- TGI [60]: 8.83 mM
- TGI [61]: > 10 mM
- TGI [62]: > 10 mM
- TGI [63]: > 10 mM
- TGI [64]: > 10 mM
- TGI [65]: > 10 mM
- TGI [66]: > 10 mM
- TGI [67]: > 10 mM
- TGI [68]: 9.87 mM
- TGI [69]: > 10 mM
- TGI [70]: 8.38 mM
